Laboratory results taken from patent US8404677B2, “Kinase inhibitors” (Genosco, priority 2009, dated 2013).

Assays:
TK-10 = assay: cells; type: cell-based; conditions: TK-10 (Renal Cancer)
SK-OV-3 = assay: cells; type: cell-based; conditions: SK-OV-3 (Ovarian Cancer)
RXF 393 = assay: cells; type: cell-based; conditions: RXF 393 (Renal Cancer)
A549/ATCC = assay: cells; type: cell-based; conditions: A549/ATCC (NSCLC)
truncated human RET = target: T1, truncated human RET (Homo sapiens, UniProt P07949); assay: Inhibition of enzymatic kinase activity (LANCE Ulight); type: biochemical
T1 construct: truncated human FAK, RET, FLT3, JAK2, and LRRK2 (CARNA BIOSCIENCES™); purchased Carna Biosciences
T1 sequence (P07949 658-1114 limits assumed): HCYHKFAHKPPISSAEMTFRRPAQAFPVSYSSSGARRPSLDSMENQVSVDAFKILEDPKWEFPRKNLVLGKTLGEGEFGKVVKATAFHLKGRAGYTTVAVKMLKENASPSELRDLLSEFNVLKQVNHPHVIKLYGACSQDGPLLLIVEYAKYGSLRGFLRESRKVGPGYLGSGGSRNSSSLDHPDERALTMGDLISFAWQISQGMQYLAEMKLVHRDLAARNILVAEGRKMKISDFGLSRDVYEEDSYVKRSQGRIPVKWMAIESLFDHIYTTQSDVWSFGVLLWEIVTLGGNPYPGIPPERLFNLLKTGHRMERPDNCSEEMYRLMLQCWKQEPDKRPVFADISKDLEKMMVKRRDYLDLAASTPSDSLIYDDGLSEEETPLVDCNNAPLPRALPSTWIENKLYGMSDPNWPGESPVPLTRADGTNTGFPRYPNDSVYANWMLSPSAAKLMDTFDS

[1] = tested on: SN4741 cells transfected with vector; assay: Neuroprotection from LRRK2-mediated dopaminergic cell death (H2O2, crystal violet); type: cell-based, murine; conditions: 100 μM hydrogen peroxide
Description: (§1) SN4741, a murine dopaminergic cell line were cultured in DMEM containing 10 FBS at 37° C., respectively. SN4741 cells (1.5×10^4/well) were seeded in 48 well plates 1 day before transient transfection with 1 μg of the pcDNA3.1 plasmids of either vector, LRRK wildtype cDNA, LRRK G2019S cDNA, by standard CaCl2 precipitation. Two days after transfection, cells were treated with 100 μM hydrogen peroxide for 1 day and cell viability was measured by crystal violet assay. For compound treatment, the test compounds were added at 0.05 μM, 0.5 μM and 5 μM and the cells were incubated for 1 hour prior to the addition of hydrogen peroxide.
(§2) SN4741 cells were transfected with plasmids containing the LRRK2 wild-type or G2019S and incubated them for 2 days followed by addition of 100 μM of hydrogen peroxide for 24 h to sensitize them to oxidative stress. Cell survival was assessed using the crystal violet.

[2] = tested on: SN4741 cells overexpressing LRRK2 wild-type; assay: as above; type: cell-based, murine; conditions: for Percent Cell Death: LRRK2 WT, 100 μM hydrogen peroxide
Description: as §1, §2

[3] = tested on: SN4741 cells overexpressing LRRK2 G2019S; assay: as above; type: cell-based, murine; conditions: for Percent Cell Death: 100 μM hydrogen peroxide
Description: as §1, §2

SW-620 = assay: cells; type: cell-based; conditions: SW-620 (Colon Cancer)
SK-MEL-28 = assay: cells; type: cell-based; conditions: SK-MEL-28 (Melanoma)
OVCAR-4 = assay: cells; type: cell-based; conditions: OVCAR-4 (Ovarian Cancer)
NCI-H226 = assay: cells; type: cell-based; conditions: NCI-H226 (NSCLC)
HCC-2998 = assay: cells; type: cell-based; conditions: HCC-2998 (Colon Cancer)
UO-31 = assay: cells; type: cell-based; conditions: UO-31 (Renal Cancer)
[4] = Homo sapiens, read-out: LC50 (the source's name)

Compound: O=c1[nH]ccc2nc(N3CCC(O)CC3)nc(Nc3cccc(C(F)(F)F)c3)c12 [Compound 6, 2-(4-hydroxypiperidin-1-yl)-4-(3-(trifluoromethyl)phenylamino)pyrido[4,3-d]pyrimidine-5(6H)-one]
- GI50 (TK-10; Homo sapiens): 6.03 µM
- IC50 (TK-10; Homo sapiens): 36.3 µM
- CC50 (TK-10; [4]): 100 µM
- TGI (TK-10): 44.7 µM
- GI50 (SK-OV-3; Homo sapiens): 0.49 µM
- IC50 (SK-OV-3; Homo sapiens): 20 µM
- CC50 (SK-OV-3; [4]): 100 µM
- TGI (SK-OV-3): 100 µM
- GI50 (RXF 393; Homo sapiens): 1.45 µM
- IC50 (RXF 393; Homo sapiens): 21.4 µM
- CC50 (RXF 393; [4]): 100 µM
- TGI (RXF 393): 23.4 µM
- TGI (A549/ATCC): 100 µM
- GI50 (A549/ATCC; Homo sapiens): 3.8 µM
- IC50 (A549/ATCC; Homo sapiens): 6.31 µM
- CC50 (A549/ATCC; [4]): 100 µM
- IC50 (truncated human RET): 0.0942 µM
- Percent Cell Death ([1]; 0.05 uM): 54.2%
- Percent Cell Death ([1]; 0.5 uM): 57.5%
- Percent Cell Death ([1]; 5 uM): 42.5%
- Percent Cell Death ([2]; 0.05 uM): 62.2%
- Percent Cell Death ([2]; 0.5 uM): 62.2%
- Percent Cell Death ([2]; 5 uM): 49.7%
- protective effects against LRRK2-associated cell death ([2]; LRRK2 wild-type, at 0.05 uM and higher, vs vector, DMSO or H2O2 controls): increased protective effects
- Percent Cell Death ([3]; 0.05 uM): 53.5%
- Percent Cell Death ([3]; 0.5 uM): 56.9%
- Percent Cell Death ([3]; 5 uM): 45.8%
- protective effects against LRRK2-associated cell death ([3]; at 0.05 uM and higher, vs vector, DMSO or H2O2 controls): increased protective effects
- GI50 (SW-620; Homo sapiens): 1.91 µM
- IC50 (SW-620; Homo sapiens): 2.82 µM
- CC50 (SW-620; [4]): 74.1 µM
- TGI (SW-620): 12.9 µM
- GI50 (SK-MEL-28; Homo sapiens): 4.68 µM
- IC50 (SK-MEL-28; Homo sapiens): 11 µM
- CC50 (SK-MEL-28; [4]): 50.1 µM
- TGI (SK-MEL-28): 17.4 µM
- GI50 (OVCAR-4; Homo sapiens): 1.74 µM
- IC50 (OVCAR-4; Homo sapiens): 9.12 µM
- LC50 (OVCAR-4; Homo sapiens): 100 µM
- TGI (OVCAR-4): 36.3 µM
- GI50 (NCI-H226; Homo sapiens): 3.24 µM
- IC50 (NCI-H226; Homo sapiens): 8.32 µM
- CC50 (NCI-H226; [4]): 100 µM
- TGI (NCI-H226): 17.8 µM
- TGI (HCC-2998): 38 µM
- GI50 (HCC-2998; Homo sapiens): 11.2 µM
- IC50 (HCC-2998; Homo sapiens): 25.1 µM
- CC50 (HCC-2998; [4]): 100 µM
- GI50 (UO-31; Homo sapiens): 0.776 µM
- IC50 (UO-31; Homo sapiens): 16.2 µM
- CC50 (UO-31; [4]): 100 µM
- TGI (UO-31): 22.9 µM
